SMILES	melting point [°C]
CCCCCNC(=O)c1cn2nc(N3CCN(C(=O)c4ccccc4C(F)(F)F)CC3)ccc2n1	179 to 180
CCCCNC(=O)c1cn2nc(N3CCN(C(=O)c4ccccc4C(F)(F)F)CC3)ccc2n1 [Example 1.6, 6-[4-(2-TRIFLUOROMETHYLBENZOYL)PIPERAZIN-1-YL]IMIDAZO[1,2-B]PYRIDAZINE-2-CARBOXYLIC ACID BUTYLAMIDE]	187 to 189
O=C(Nc1ccc(Cl)cn1)c1cn2nc(N3CCN(C(=O)c4ccccc4C(F)(F)F)CC3)ccc2n1 [Example 1.7, 6-[4-(2-TRIFLUOROMETHYLBENZOYL)PIPERAZIN-1-YL]IMIDAZO[1,2-B]PYRIDAZINE-2-CARBOXYLIC ACID (5-CHLOROPYRIDIN-2-YL)AMIDE]	265 to 268
O=C(NCc1ccc(F)cc1)c1cn2nc(N3CCN(C(=O)c4ccccc4C(F)(F)F)CC3)ccc2n1 [Example 1.8, 6-[4-(2-TRIFLUOROMETHYLBENZOYL)PIPERAZIN-1-YL]IMIDAZO[1,2-B]PYRIDAZINE-2-CARBOXYLIC ACID 4-FLUOROBENZYLAMIDE]	205 to 207
O=C(Nc1ccc(F)cc1)c1cn2nc(N3CCN(C(=O)c4ccccc4C(F)(F)F)CC3)ccc2n1 [Example 1.9, 6-[4-(2-TRIFLUOROMETHYLBENZOYL)PIPERAZIN-1-YL]-IMIDAZO[1,2-B]PYRIDAZINE-2-CARBOXYLIC ACID (4-FLUOROPHENYL)AMIDE]	115 to 117

From US7547698B2, “Bicyclic heterocyclic derivatives and their use as inhibitors of stearoyl-coadesaturase (SCD)” (Xenon Pharmaceuticals Inc., priority 2004, dated 2009)
